# Assay results reported in patent US7705038B2, “Control of parasites in animals by the use of parasiticidal 2-phenyl-3-(1H-pyrrol-2-yl)acrylonitrile derivatives” (Intervet, Inc., priority 2004, dated 2010).
# Columns and labels:
# [1] = system: cat fleas (Ctenocephalides felis); assay: Contact activity against cat fleas (LC50, % kill); conditions: for % Kill: percent of a sample of cat fleas killed at a concentration of 1.26 μg/cm^2; for pest or weed control at 1.26 µg/cm2, 1.26 µg/cm2: Ctenocephalides felis, read-out: % Kill
# Description: (§1) Exemplified compounds of Formula 1 are listed by Tables 1a and 1b, above. The activity of these compounds against Haemonchus contortus and cat fleas (Ctenocephalides felis) is summarized by Table 7, below.
# [2] = system: Haemonchus contortus; assay: Activity against Haemonchus contortus (LD99); conditions: dose required to kill 99% of the sample of Haemonchus contortus
# Description: as §1
# The LD99 value is the dose, expressed as μg/ml, that was required to kill 99% of the sample of Haemonchus contortus.
SMILES,LD99 [2],further results
N#C/C(=C\c1ccc[nH]1)c1cccc(Cl)c1 [Compound 1],0.75 µg/mL,% Kill [1]: 28%
"N#C/C(=C\c1ccc[nH]1)c1ccc(Cl)cc1 [Compound 2, (Z)-2-(4-Chloro-phenyl)-3-(1H-pyrrol-2-yl)acrylonitrile]",,"pest or weed control at 1.26 µg/cm2, 1.26 µg/cm2 [1]: 95%; LC50 ([1]; concentration required to kill 50% of the sample of cat fleas on contact): 0.17 μg/cm^2; EC99 [2]: 0.406 µg/mL"
N#C/C(=C\c1cc(Cl)c(Cl)[nH]1)c1ccc(Cl)cc1 [Compound 3],3 µg/mL,% Kill [1]: 15%
N#C/C(=C\c1ccc[nH]1)c1ccc(C(F)(F)F)cc1 [Compound 4],0.625 µg/mL,% Kill [1]: 20%
Cn1cccc1/C=C(\C#N)c1cccc(Cl)c1 [Compound 5],3 µg/mL,% Kill [1]: 6%
"Cn1cccc1/C=C(\C#N)c1ccc(Cl)cc1 [Compound 6, (Z)-2-(4-Chloro-phenyl)-3-(1-methyl-1H-pyrrol-2-yl)acrylonitrile]",,"pest or weed control at 1.26 µg/cm2, 1.26 µg/cm2 [1]: 13%; EC99 [2]: 1.88 µg/mL"
"CCOCn1cccc1/C=C(\C#N)c1ccc(Cl)cc1 [Compound 7, (Z)-2-(4-Chloro-phenyl)-3-(1-ethoxymethyl-1H-pyrrol-2-yl)acrylonitrile]",,"pest or weed control at 1.26 µg/cm2, 1.26 µg/cm2 [1]: 6%; EC99 [2]: 5.5 µg/mL"
CCOCn1cccc1/C=C(\C#N)c1ccc(C(F)(F)F)cc1 [Compound 8],5 µg/mL,% Kill [1]: 6%
N#C/C(=C\c1cc(Br)c[nH]1)c1cccc(C(F)(F)F)c1 [Compound 12],3.25 µg/mL,
CCOCn1cccc1/C=C(\C#N)c1ccc(F)cc1 [Compound 49],14 µg/mL,
CCOCn1cccc1/C=C(\C#N)c1ccccc1C#N [Compound 50],— (the symbol ‘—’ indicates tested but inactive up to 15 μg/ml),
CCOCn1cccc1/C=C(\C#N)c1ccc(Br)cc1 [Compound 51],7.5 µg/mL,
CCOCn1cccc1/C=C(\C#N)c1c(Cl)cccc1Cl [Compound 52],— (the symbol ‘—’ indicates tested but inactive up to 15 μg/ml),
"CCOCn1cccc1/C=C(\C#N)c1ccc2ccccc2c1 [Compound 53, 2-(2-naphthyl)-3-(1-ethoxymethyl-1H-pyrrol-2-yl)acrylonitrile]",,EC99 [2]: > 15 µg/mL
CCOCn1cccc1/C=C(\C#N)c1ccccc1Cl [Compound 54],7 µg/mL,
CCOCn1cccc1/C=C(\C#N)c1ccc(Cl)c(Cl)c1 [Compound 56],6.5 µg/mL,
CCOCn1cccc1/C=C(\C#N)c1ccccc1C(F)(F)F [Compound 57],— (the symbol ‘—’ indicates tested but inactive up to 15 μg/ml),
CCOCn1cccc1/C=C(\C#N)c1cccc(Br)c1 [Compound 58],— (the symbol ‘—’ indicates tested but inactive up to 15 μg/ml),
CCOCn1cccc1/C=C(\C#N)c1cc(C(F)(F)F)cc(C(F)(F)F)c1 [Compound 59],— (the symbol ‘—’ indicates tested but inactive up to 15 μg/ml),
CCOCn1cccc1/C=C(\C#N)c1c(F)cccc1F [Compound 61],— (the symbol ‘—’ indicates tested but inactive up to 15 μg/ml),
CCOCn1cccc1/C=C(\C#N)c1ccc(F)c(F)c1 [Compound 62],6 µg/mL,
CCOCn1cccc1/C=C(\C#N)c1cccc(C)c1 [Compound 63],13 µg/mL,
"CCOCn1cccc1/C=C(\C#N)c1cccc2ccccc12 [Compound 65, 2-(1-naphthyl)-3-(1-ethoxymethyl-1H-pyrrol-2-yl)acrylonitrile]",,EC99 [2]: > 15 µg/mL
"CC(C)=CCn1cccc1/C=C(\C#N)c1ccc(Cl)cc1 [Compound 80, (Z)-2-(4-chlorophenyl)-3-(1-(3-methylbut-2-enyl)-1H-pyrrol-2-yl)acrylonitrile]",,EC99 [2]: > 15 µg/mL
Cc1ccc(S(=O)(=O)n2cccc2/C=C(\C#N)c2ccc(Cl)cc2)cc1 [Compound 83],12 µg/mL,
N#C/C(=C\c1ccc[nH]1)c1ccccc1-c1ccccc1 [Compound 89],,% Kill [1]: 2%
N#C/C(=C\c1ccc[nH]1)c1ccccc1C(F)(F)F [Compound 90],,% Kill [1]: 14%
COc1ccccc1/C(C#N)=C/c1ccc[nH]1 [Compound 91],,% Kill [1]: 9%
